For 46 molecules, logP results are on record in patent US8946234B2, “Halogen-substituted compounds” (Bayer CropScience AG, priority 2008, dated 2015).

This data set is described as follows: physchem. The class given is physicochemical. The method in brief:
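Following EEC Directive 79/831 Annex V.A8, logP is obtained from retention on a 1.8 micron C18 column (50×4.6 mm) at 55 °C and 2.0 ml/min. Elution ran 10→95% acetonitrile (0.1% formic acid) against water (0.09% formic acid) in 4.25 min, held 1.25 min; mass detection used.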
`Cn1nc(C(F)(F)C(F)(F)F)c(C(F)(F)F)c1C(=O)Nc1cc(C(=O)NCC(F)(F)F)c(Cl)cc1F` [Ik-144]: the logP was 3.73^a).

Regarding `Cn1nc(C(F)(F)C(F)(F)F)c(C(F)(F)F)c1C(=O)Nc1cc(C(=O)NC2CC2)c(F)cc1F` [Ik-145], the logP was 3.32^a).

With `Cn1nc(C(F)(F)C(F)(F)F)c(C(F)(F)F)c1C(=O)Nc1cc(C(=O)NCC(F)(F)F)c(F)cc1F` [Ik-146], the logP was 3.64^a).

As to `Cn1nc(C(F)(F)C(F)(F)F)c(C(F)(F)F)c1C(=O)Nc1cc(C(=O)NC2CC2)c(Cl)cc1Cl` [Ik-147], the logP is on record as 3.61^a).

With `Cn1nc(C(F)(F)C(F)(F)F)c(C(F)(F)F)c1C(=O)Nc1cc(C(=O)NC2CC2)c(F)cc1Cl` [Ik-148], the logP is listed as 3.53^a).

With `Cn1nc(C(F)(F)C(F)(F)F)c(C(F)(F)F)c1C(=O)Nc1ccc(Cl)c(C(=O)NCc2ccccc2)c1Cl` [Ik-149], the logP is given as 4.33^a).

In the case of `Cn1nc(C(F)(F)C(F)(F)F)c(C(F)(F)F)c1C(=O)Nc1cc(C(=O)NCc2ccccc2)c(Cl)cc1Cl` [Ik-150], the logP was 4.23^a).

Consider `Cn1nc(C(F)(F)C(F)(F)F)c(C(F)(F)F)c1C(=O)Nc1cc(C(=O)NCC(F)(F)F)c(F)cc1Cl` [Ik-151], for which the logP is listed as 3.83^a).

`CC(NC(=O)c1cc(NC(=O)c2c(Cl)c(C(F)(F)F)nn2C)ccc1Cl)C(F)(F)F` (stereo not shown) [Ik-152]: the logP is reported as 3.44^a).

`Cn1nc(C(F)(F)F)c(Cl)c1C(=O)Nc1ccc(Cl)c(C(=O)NC2CC2F)c1` (stereo not shown) [Ik-153]: the logP is on record as 2.86^a).

For the molecule `Cn1nc(C(F)(F)F)c(Cl)c1C(=O)Nc1ccc(Cl)c(C(=O)NCC(F)(F)F)c1` [Ik-154], the logP is listed as 3.20^a).

As to `Cn1nc(C(F)(F)C(F)(F)F)c(C(F)(F)F)c1C(=O)Nc1ccc(F)c(C(=O)NC2CC2)c1` [Ik-155], the logP is listed as 3.31^a).

For the molecule `Cn1nc(C(F)(F)C(F)(F)F)c(C(F)(F)F)c1C(=O)Nc1ccc(F)c(C(=O)NCC(F)(F)F)c1` [Ik-156], the logP is 3.66^a).

As to `Cn1nc(C(F)(F)C(F)(F)F)c(C(F)(F)F)c1C(=O)Nc1ccc(F)c(C(=O)NCc2ccccc2)c1` [Ik-157], the logP is listed as 3.95^a).

On to `CC(NC(=O)c1cc(NC(=O)c2c(Br)c(C(F)(F)F)nn2C)ccc1Cl)C(F)(F)F` (stereo not shown) [Ik-158], for which the logP was 3.40^a).

Regarding `Cn1nc(C(F)(F)F)c(Br)c1C(=O)Nc1ccc(Cl)c(C(=O)NC2CC2F)c1` (stereo not shown) [Ik-159], the logP is given as 2.82^a).

On to `Cn1nc(C(F)(F)F)c(Br)c1C(=O)Nc1ccc(Cl)c(C(=O)NCC(F)(F)F)c1` [Ik-160], for which the logP was 3.17^a).

Regarding `CC(NC(=O)c1cc(NC(=O)c2c(C(F)(F)F)c(C(F)(F)C(F)(F)F)nn2C)ccc1F)C(F)(F)F` (stereo not shown) [Ik-161], the logP is on record as 3.89^a).

Take `Cn1nc(C(F)(F)C(F)(F)F)c(C(F)(F)F)c1C(=O)Nc1cc(F)cc(C(=O)NCc2ccccc2)c1` [Ik-162]: the logP is 4.05^a).

Take `Cn1nc(C(F)(F)C(F)(F)F)c(C(F)(F)F)c1C(=O)Nc1ccc(Cl)c(C(N)=O)c1` [Ik-163]: the logP is recorded as 2.83^a).

Consider `CC(C)(C)n1nc(C(F)(F)C(F)(F)F)c(C(F)(F)F)c1C(=O)Nc1ccc(Cl)c(C(=O)NC2CC2)c1` [Ik-167], for which the logP is recorded as 4.17^a).

For `Cn1nc(C(F)(F)C(F)(F)F)c(C(F)(F)F)c1C(=O)Nc1ccc(F)c(C(=O)NC2CC2F)c1` (stereo not shown) [Ik-168], the logP is recorded as 3.35^a).

For `Cn1nc(C(F)(F)C(F)(F)F)c(C(F)(F)F)c1C(=O)Nc1cc(F)c(F)c(C(=O)NC2CC2)c1F` [Ik-169], the logP is reported as 3.53^a).

As for `Cn1nc(C(F)(F)C(F)(F)F)c(C(F)(F)F)c1C(=O)Nc1cc(Cl)cc(C(=O)NC2CC2)c1Cl` [Ik-170], the logP was 3.78^a).

For `Cn1nc(C(F)(F)C(F)(F)F)c(C(F)(F)F)c1C(=O)Nc1cc(C(=O)NCC(F)(F)F)c(Cl)cc1Cl` [Ik-171], the logP is on record as 3.97^a).

On to `Cn1nc(C(F)(F)C(F)(F)F)c(C(F)(F)F)c1C(=O)Nc1ccc(Br)c(C(=O)NCc2ccccc2)c1` [Ik-172], for which the logP is reported as 4.03^a).

For `Cn1nc(C(F)(F)C(F)(F)F)c(C(F)(F)F)c1C(=O)Nc1ccc(Br)c(C(=O)NCC(F)(F)F)c1` [Ik-173], the logP is on record as 3.77^a).

As to `CC(NC(=O)c1cc(NC(=O)c2c(C(F)(F)F)c(C(F)(F)C(F)(F)F)nn2C)ccc1Br)C(F)(F)F` (stereo not shown) [Ik-174], the logP was 3.95^a).

In the case of `Cn1nc(C(F)(F)C(F)(F)F)c(C(F)(F)F)c1C(=O)Nc1ccc(Br)c(C(=O)NC2CC2)c1` [Ik-175], the logP is reported as 3.39^a).

Turning to `O=C(NC1CC1)c1cc(NC(=O)c2c(C(F)(F)F)c(C(F)(F)C(F)(F)F)nn2-c2ccccc2)ccc1Cl` [Ik-176], the logP was 4.00^a).

In the case of `Cn1nc(C(F)(F)C(F)(F)F)c(C(F)(F)F)c1C(=O)Nc1cc(Br)c(Cl)c(C(=O)NCC(F)(F)F)c1` [Ik-178], the logP is 4.14^a).

Regarding `O=C(NC1CC1)c1cc(NC(=O)c2[nH]nc(C(F)(F)C(F)(F)F)c2C(F)(F)F)ccc1Cl` [Ik-179], the logP is 2.95^a).

`Cn1nc(C(F)(F)C(F)(F)F)c(C(F)(F)F)c1C(=O)Nc1ccc([N+](=O)[O-])c(C(=O)NC2CC2)c1` [Ik-180]: the logP is recorded as 3.27^a).

`Cn1nc(C(F)(F)C(F)(F)F)c(C(F)(F)F)c1C(=O)Nc1ccc([N+](=O)[O-])c(C(=O)NCC(F)(F)F)c1` [Ik-181]: the logP was 3.58^a).

In the case of `Cn1nc(C(F)(F)F)c(I)c1C(=O)Nc1ccc(Cl)c(C(=O)NC2CC2)c1` [Ik-182], the logP is 2.70^a).

On to `Cn1nc(C(F)(F)C(F)(F)F)c(C(F)(F)F)c1C(=O)Nc1ccc(I)c(C(=O)NC2CC2)c1` [Ik-183], for which the logP was 3.45^a).

`Cn1nc(C(F)(F)C(F)(F)F)c(C(F)(F)F)c1C(=O)Nc1ccc(I)c(C(=O)NCc2ccccc2)c1` [Ik-184]: the logP was 4.07^a).

Regarding `COc1ccc(NC(=O)c2c(C(F)(F)F)c(C(F)(F)C(F)(F)F)nn2C)cc1C(=O)NC1CC1` [Ik-185], the logP is 3.32^a).

On to `Cn1nc(C(F)(F)C(F)(F)F)c(C(F)(F)F)c1C(=O)Nc1ccc(Cl)c(C(=O)NCC=C(Cl)Cl)c1` [Ik-186], for which the logP was 4.09^a).

For `Cn1nc(C(F)(F)C(F)(F)F)c(C(F)(F)F)c1C(=O)Nc1cc(C#N)c(Cl)c(C(=O)NC2CC2)c1` [Ik-187], the logP is reported as 3.40^a).

For the molecule `Cn1nc(C(F)(F)C(F)(F)F)c(C(F)(F)F)c1C(=O)Nc1cc(F)c(Cl)c(C(=O)NC2CC2)c1` [Ik-188], the logP was 3.59^a).

Consider `Cn1nc(C(F)(F)C(F)(F)F)c(C(F)(F)F)c1C(=O)Nc1cc(F)c(Cl)c(C(=O)NCc2ccccc2)c1` [Ik-189], for which the logP was 4.14^a).

With `Cn1nc(C(F)(F)C(F)(F)F)c(C(F)(F)F)c1C(=O)Nc1cc(F)c(Cl)c(C(=O)NCC(F)(F)F)c1` [Ik-190], the logP is 3.91^a).

In the case of `CSc1c(F)cc(NC(=O)c2c(C(F)(F)F)c(C(F)(F)C(F)(F)F)nn2C)cc1C(=O)NC1CC1` [Ik-191], the logP was 3.57^a).

As to `CSc1c(F)cc(NC(=O)c2c(C(F)(F)F)c(C(F)(F)C(F)(F)F)nn2C)cc1C(=O)NCc1ccccc1` [Ik-192], the logP is recorded as 4.15^a).

Regarding `CSc1c(F)cc(NC(=O)c2c(C(F)(F)F)c(C(F)(F)C(F)(F)F)nn2C)cc1C(=O)NCC(F)(F)F` [Ik-193], the logP is reported as 3.90^a).
